Measurements: ChEMBL document CHEMBL1201862, “PubChem BioAssay data set” (2004)
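Step 1: Grow cells in 96-well plates. Step 2: Expose to compound for 48 hours at 5 concentrations. Step 3: Interpolate endpoints linearly; if unreached, use highest concentration. At the GI50, growth is halved.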 The source made the active and inactive calls. Rule as the data show it: active = GI50 up to about 1.1 µM and inactive = higher.

Tests used:
Test in all cases: DTP human tumour cell line panel, 48 h
[1] = tested on: ACHN
[2] = tested on: CCRF-CEM
[3] = tested on: COLO 205
[4] = tested on: DU-145
[5] = tested on: EKVX
[6] = tested on: Hs-578T
[7] = tested on: K562
[8] = tested on: KM12
[9] = tested on: M14
[10] = tested on: MDA-MB-231
[11] = tested on: NCI-H226
[12] = tested on: OVCAR-5
[13] = tested on: RXF 393
[14] = tested on: SF-539
[15] = tested on: SK-MEL-28
[16] = tested on: SK-OV-3
[17] = tested on: SN12C
[18] = tested on: SNB-19
[19] = tested on: T47D

Measured: GI50

Nc1cc(S(N)(=O)=O)ccc1SSc1ccc(S(N)(=O)=O)cc1N
inactive: [1] > 62.5 µM | [2] 8.49 µM | [3] > 100 µM | [4] > 100 µM | [5] > 100 µM | [6] > 100 µM | [7] > 96.6 µM | [8] > 100 µM | [9] > 100 µM | [10] > 100 µM | [11] > 100 µM | [12] > 100 µM | [13] > 100 µM | [14] > 100 µM | [15] > 100 µM | [16] > 100 µM | [17] > 100 µM | [18] > 100 µM | [19] > 100 µM

COc1cc(C2C=C(c3ccccc3)Oc3cc4c(cc32)OCO4)cc(OC)c1OC (stereo unspecified)
active: [2] 0.46 µM | [3] 0.33 µM | [4] 0.361 µM | [5] 0.565 µM | [6] 0.348 µM | [7] 0.435 µM | [8] 0.38 µM | [9] 0.35 µM | [10] 0.458 µM | [11] 0.376 µM | [12] 0.585 µM | [13] 0.0843 µM | [14] 0.265 µM | [15] 0.57 µM | [16] 0.191 µM | [17] 0.675 µM
inactive: [1] 1.53 µM | [18] 3.94 µM | [19] 2 µM

NC(=O)CSc1c2cc(O)ccc2nc2ccc(O)cc12
inactive: [1] > 10 µM | [2] > 10 µM | [3] > 10 µM | [4] > 10 µM | [5] > 10 µM | [6] > 10 µM | [7] > 10 µM | [8] > 10 µM | [9] > 10 µM | [10] > 10 µM | [11] > 10 µM | [12] > 10 µM | [13] > 10 µM | [14] > 10 µM | [15] > 10 µM | [16] > 10 µM | [17] > 10 µM | [18] > 10 µM | [19] > 10 µM

COc1cccc(NC(=O)CC(=O)N2N=C(C)C(/N=N\c3ccc(S(=O)(=O)c4ccc(/N=N/C5C(=O)N(C(=O)CC(=O)Nc6cccc(OC)c6)N=C5C)cc4)cc3)C2=O)c1 (stereo unspecified)
inactive: [1] > 100 µM | [2] > 100 µM | [3] > 100 µM | [4] > 100 µM | [5] > 100 µM | [6] > 100 µM | [7] > 100 µM | [8] > 100 µM | [9] > 100 µM | [10] > 100 µM | [11] > 100 µM | [12] > 100 µM | [13] > 100 µM | [14] > 100 µM | [15] > 100 µM | [16] > 100 µM | [17] > 100 µM | [18] > 100 µM | [19] > 100 µM

N=C(N)Nc1nc2cc([N+](=O)[O-])ccc2[nH]1
inactive: [1] > 100 µM | [2] > 100 µM | [3] > 100 µM | [4] > 100 µM | [5] 41.6 µM | [6] > 100 µM | [7] 93.5 µM | [8] 37.3 µM | [9] > 100 µM | [10] > 100 µM | [11] > 100 µM | [12] > 100 µM | [13] 58.9 µM | [14] 56.6 µM | [15] > 100 µM | [16] > 100 µM | [17] 86.1 µM | [18] > 100 µM | [19] 69.2 µM

Oc1ccc(/C=C\c2nnc(/C=C\c3ccc(O)c(O)c3)s2)cc1O
active: [2] 0.179 µM
inactive: [1] 3.69 µM | [3] 8.26 µM | [4] 7.05 µM | [5] 16.6 µM | [6] 3.73 µM | [7] 1.21 µM | [8] 5.45 µM | [9] 6.1 µM | [10] 20 µM | [11] 7.73 µM | [12] > 48.6 µM | [13] 5.16 µM | [14] 3.36 µM | [15] 7.45 µM | [16] 13.6 µM | [17] 5.98 µM | [18] 6.07 µM | [19] 2.35 µM

Cc1ccc(C2=NN=C3C(c4ccccc4)=Nc4ccccc4N3C2)cc1
inactive: [1] 16.7 µM | [2] 1.88 µM | [3] 9.77 µM | [4] 3.14 µM | [5] 10.9 µM | [6] 9.16 µM | [7] 4.61 µM | [8] 26.4 µM | [9] 3.64 µM | [10] 19.8 µM | [11] 12.9 µM | [12] 18 µM | [13] 4.41 µM | [14] 19.1 µM | [15] > 38 µM | [16] 21 µM | [17] 15.5 µM | [18] 16.9 µM | [19] 27.2 µM

CCCCCCCCCCCC(=O)NCc1ccc(OC(=O)CCCCCCCCCCC)c(OC)c1
inactive: [1] > 100 µM | [2] 1.34 µM | [3] 35.6 µM | [4] > 79.3 µM | [5] > 100 µM | [6] 56.4 µM | [7] > 83 µM | [8] 24.3 µM | [9] 32.7 µM | [10] > 100 µM | [11] > 100 µM | [12] > 100 µM | [13] > 100 µM | [14] 3.56 µM | [15] > 81.7 µM | [16] > 100 µM | [17] > 88.3 µM | [18] > 100 µM | [19] 32.2 µM

COc1cccc(C2CC(C)(O)Oc3cc4c(cc32)OCO4)c1O (stereo unspecified)
inactive: [1] 31.8 µM | [2] 13.3 µM | [3] 19.5 µM | [4] 22.6 µM | [5] 34.6 µM | [6] 15.4 µM | [7] 9.68 µM | [8] 12.5 µM | [9] 13.5 µM | [10] 18 µM | [11] 17.4 µM | [12] 27 µM | [13] 26.3 µM | [14] 17.4 µM | [15] 35.2 µM | [16] 28.5 µM | [17] 28.7 µM | [18] 31 µM | [19] 64.4 µM

Cn1c(=O)oc2cc(Br)ccc21
inactive: [1] > 100 µM | [2] > 100 µM | [3] > 100 µM | [4] > 100 µM | [5] 91.4 µM | [6] > 100 µM | [7] > 100 µM | [8] > 100 µM | [9] > 100 µM | [10] > 100 µM | [11] > 100 µM | [12] > 100 µM | [13] > 100 µM | [14] > 100 µM | [15] > 100 µM | [16] > 100 µM | [17] > 100 µM | [18] > 100 µM | [19] > 100 µM

O=c1[nH]c(=O)n(C2CC(O)C(CO)O2)cc1I (stereo unspecified)
inactive: [1] > 100 µM | [2] 17.5 µM | [3] > 100 µM | [4] > 100 µM | [5] > 100 µM | [6] > 100 µM | [7] > 23.1 µM | [8] > 100 µM | [9] > 70.3 µM | [10] > 100 µM | [11] > 100 µM | [12] > 100 µM | [13] > 100 µM | [14] > 100 µM | [15] > 100 µM | [16] > 100 µM | [17] 89.9 µM | [18] > 100 µM | [19] > 100 µM

O[C@H]1[C@H](O)[C@H](O)CN2CCC[C@@H](O)[C@H]12
inactive: [1] > 100 µM | [2] > 100 µM | [3] > 100 µM | [4] > 100 µM | [5] > 100 µM | [6] > 100 µM | [7] > 100 µM | [8] > 100 µM | [9] > 100 µM | [10] > 100 µM | [11] > 100 µM | [12] > 100 µM | [13] > 100 µM | [14] > 100 µM | [15] > 100 µM | [16] > 100 µM | [17] > 100 µM | [18] > 100 µM | [19] > 100 µM

O=[N+]([O-])c1ccc2c3c1[C@@H]1O[C@@H]1c1cccc(c1-3)[C@@H]1O[C@H]21
inactive: [1] 1.94 µM | [2] 2.45 µM | [3] 6.47 µM | [4] 3.1 µM | [5] 6.35 µM | [6] 3.1 µM | [7] 4.2 µM | [8] 2.72 µM | [9] 3.24 µM | [10] 6.44 µM | [11] 26.6 µM | [12] 13.6 µM | [13] 4.17 µM | [14] 2.02 µM | [15] 3.1 µM | [16] 17.4 µM | [17] 2.71 µM | [18] 14.6 µM | [19] 3.35 µM

COc1ccc2c(c1)c(=O)c1c(NCCCN(C)CCCNc3ccc4c(=O)n(CCN(C)C)c(=O)n5c6ccc(OC)cc6c(=O)c3c45)ccc3c(=O)n(CCN(C)C)c(=O)n2c31
active: [1] < 0.01 µM | [2] < 0.01 µM | [3] < 0.0473 µM | [4] < 0.012 µM | [5] 0.188 µM | [6] 0.105 µM | [7] < 0.01 µM | [8] < 0.01 µM | [9] 0.594 µM | [10] 0.0614 µM | [11] < 0.01 µM | [12] 0.29 µM | [13] < 0.0202 µM | [14] 0.08 µM | [15] 0.415 µM | [16] 0.217 µM | [17] < 0.01 µM | [18] < 0.01 µM | [19] 0.619 µM
